{"source": "a melting point compilation (Tetko et al.; mined from patent text by program, amines drawn as free bases though some values may be those of a salt)", "data": [{"units": {"melting point": "°C"}, "values": [{"smiles": "Cc1cc(C)cc(NCc2ccc3nc(NCCCN4CCOCC4)n(Cc4nc(C)ccc4O)c3c2)c1", "melting point": 199}, {"smiles": "COCCOc1ccc(CCCOC(=O)NS(=O)(=O)NCCc2ccccc2)c(Oc2ncc(C(F)(F)F)cc2Cl)c1", "melting point": "110 to 113"}, {"smiles": "COc1c(Cl)cc(OCC=C(Cl)Cl)cc1C=O", "melting point": 78}, {"smiles": "C#CC(C)(C)Oc1ccc2ncccc2c1", "melting point": "65 to 67"}, {"smiles": "O=C(O)c1nccc(Cl)c1O", "melting point": 228}, {"smiles": "C=CCOC(=O)c1ccc(C(=O)SCc2ccc3c(c2)C(C)(C)CCC3(C)C)cc1", "melting point": "79 to 80"}, {"smiles": "COC(=O)CCCCOc1cc2c(c(Cl)c1Cl)C(=O)C(C)(C1CCCC1)C2", "note": "(stereo unspecified)", "melting point": "83 to 86"}, {"smiles": "N#Cc1cc(F)c(Cl)c(Br)c1Cl", "melting point": "110 to 112"}, {"smiles": "CC(=O)Nc1c(C(C)=O)[nH]c2cc(Cl)ccc12", "melting point": "262 to 267"}, {"smiles": "COc1cc(C(=O)O)c(OC)cc1C", "melting point": 120}, {"smiles": "COc1c(Cl)cc(Cn2c(S)nc3ccccc32)cc1Cl", "melting point": "217 to 218"}, {"smiles": "CCOC(=O)Nc1c(C)cc(Cc2cnc(N)nc2N)cc1C", "melting point": "192 to 193"}, {"smiles": "FC(F)(F)c1cccc(Oc2cc(Oc3cccc(C(F)(F)F)c3)nc(Br)n2)c1", "melting point": "126 to 129"}, {"smiles": "Cc1ccc(-c2cc(C#N)c[nH]2)cc1", "melting point": "169 to 171"}, {"smiles": "Nc1ncccc1OCc1ccccc1Br", "melting point": "99 to 100"}, {"smiles": "OCC=Cc1ccsc1", "melting point": "58 to 60"}, {"smiles": "CCc1cc(C(=O)Nc2ccccc2)on1", "melting point": "122 to 124"}, {"smiles": "CCOC(=O)c1cn(CCF)c2nc(S(=O)(=O)CC)c(F)cc2c1=O", "melting point": "176 to 178"}, {"smiles": "CC(C)(C)OC(=O)Nc1ccc(I)cc1[N+](=O)[O-]", "melting point": "92 to 94"}, {"smiles": "O=C(O)c1c(Cl)ccc2c1OCCO2", "melting point": 162}, {"smiles": "COc1ccc(S(=O)(=O)Nc2nc(-c3cccc4ccccc34)cs2)cc1OC", "melting point": "132 to 133"}, {"smiles": "O=C(O)c1ccc(COc2ccc3cc(-c4ccc(-c5ccccc5)n4-c4ccccc4)ccc3c2)cc1", "melting point": "309 to 310"}, {"smiles": "CCOC(=O)C1=C(NC(=O)Nc2cc(OC(C)C)c(Cl)cc2F)CCC1", "melting point": "166 to 169"}, {"smiles": "O=[N+]([O-])c1ccc(CN(CCO)CCO)cc1", "melting point": "74 to 75"}, {"smiles": "Cc1ccc(C(=O)Nc2c[nH]nc2C(=O)NCC(F)(F)F)cn1", "melting point": "218 to 219"}, {"smiles": "CCCC(CC)(C(=O)N(C)C)n1cc(C)c(-c2ccccc2)n1", "note": "(stereo unspecified)", "melting point": "147 to 148"}, {"smiles": "CC(C)(ON=C(C(=O)O)c1ccco1)C(N)=O", "melting point": "160 to 162"}, {"smiles": "O=C(CN1C(=O)c2ccccc2C1=O)Nc1ccccc1Cc1ccccc1", "melting point": 232}, {"smiles": "CC(=O)N(O)C(C)c1ccccc1Nc1c(Cl)ccc(C)c1Cl", "note": "(stereo unspecified)", "melting point": "185 to 187"}, {"smiles": "CCn1cc(-c2cccc(C(F)(F)F)c2)c(=O)n1-c1cccc(C(F)(F)F)c1", "melting point": "110 to 111"}, {"smiles": "O=C1NC(c2ccccc2)=N/C1=C\\c1c[nH]c2ncc(Cl)cc12", "melting point": 250}, {"smiles": "CCSc1c(C=O)c(=O)n(C)c(=O)n1C", "melting point": 72}, {"smiles": "COc1cncc(OC)c1CCCO", "melting point": "88 to 89"}, {"smiles": "Cn1ncc(C(=O)N2CCOCC2)c1C(=O)Nc1ccn2nc(N3CCOCC3)nc2c1", "melting point": "206 to 208"}, {"smiles": "N#Cc1cnc2cnc(F)cc2c1Nc1cccc(Br)c1", "melting point": "185 to 195"}, {"smiles": "COCc1c(C=C(Br)Br)ncc2c1c1c(OCc3ccccc3)cccc1n2S(=O)(=O)c1ccc(C)cc1", "melting point": "149 to 152"}, {"smiles": "CNC(=O)N1CC(Oc2ccc(Cl)cc2Cl)C1", "melting point": "140 to 141"}, {"smiles": "CC(=O)NC1CC(C)(C)N(OC2CCCCC2)C(C)(C)C1", "melting point": "140 to 144"}, {"smiles": "CCc1c(-c2ccncn2)ssc1=S", "melting point": "100 to 102"}, {"smiles": "CCOC(=O)CCCCSc1nc2ccccc2[nH]1", "melting point": "88 to 90"}, {"smiles": "CCCCC1(N(C)C)CC=C(c2[nH]c3ccccc3c2Cc2ccccc2)CC1", "note": "(stereo unspecified)", "melting point": "107 to 115"}, {"smiles": "COC(=O)COc1ccc(-c2ccc3c(c2)c(C)c(-c2ccccc2)n3Cc2ccccc2)cc1", "melting point": "167 to 170"}, {"smiles": "CC(=O)C=Cc1cccc(N(C)C)c1", "melting point": "47 to 49"}, {"smiles": "Cc1c(CO)cc([N+](=O)[O-])c(Cl)c1[N+](=O)[O-]", "melting point": "158 to 160"}, {"smiles": "COc1cc(Br)c(OC(=O)c2ccc(OC)c(C(F)(F)F)c2)c(NC(=O)c2ccc(OC)c(C(F)(F)F)c2)c1", "melting point": "205 to 208"}, {"smiles": "CC(C)(C)c1cc(C2(C)NC(=O)NC2=O)cc(C(C)(C)C)c1O", "note": "(stereo unspecified)", "melting point": 260}, {"smiles": "O=C(Nc1ccc(N2CCN(C(=O)C(O)c3ccccc3Cl)CC2)nc1)Nc1ccccc1F", "note": "(stereo unspecified)", "melting point": "127 to 128"}, {"smiles": "C1=Nc2ccccc2OC1", "melting point": "126 to 129"}, {"smiles": "O=C1c2ccccc2C(=O)N1CCCCc1nc[nH]n1", "melting point": "169 to 171"}, {"smiles": "COc1ccc2c(C(F)(F)F)c(CC(=O)O)c(=O)oc2c1", "melting point": "198 to 200"}, {"smiles": "COc1cc(OC)nc(Oc2cccc(O)c2C(=O)OCc2ccccc2)n1", "melting point": "63 to 65"}]}]}
